# Tested on: Wistar rats
# Experiment: Postprandial maximum increase of blood glucose in rat after oral administration of cooked white rice and triolein
# Assay type: in vivo
# Conditions: for Postprandial maximum increase of blood glucose (maximum increase value from initial value, relative value based on 100 for control group): with 2 mg white rice and 1.5 μg triolein per g body weight, fasted male Wistar rats, average±standard error
# Procedure: To white rice (Koshihikari produced in Tochigi prefecture), water (1.5 times equivalent to the volume of the white rice) was added to allow the rice to absorb the water for 30 minutes. Then, the rice was cooked with a rice cooker (ZOJIRUSHI microcomputer-controlled rice cooker NS-KG05, manufactured by Zojirushi Corporation). Water and triolein (manufactured by Sigma-Aldrich Corporation) were added to the cooked rice, followed by homogenization until the mixture was sufficiently homogenized, thereby yielding a sample for administration. The sample for administration was orally probe-administered to a group at 2 mg of white rice per g body weight and 1.5 μg of triolein per g body weight (the group as a control group). Each of the purified cycloartenol produced in Example 1 described above was added to a sample for administration (dissolved in triolein). Each of the resultants was orally probe-administered to a group at 2 mg of white rice per g body weight, 1.5 μg of triolein per g body weight, and 0.075 μg, or 0.15 μg, of cycloartenol equivalent per g body weight (the groups as Test group 1 and 2). Further, purified 24-methylenecycloartanol was added to a sample for administration (dissolved in triolein). The resultant was orally probe-administered to a group at 2 mg of white rice per g body weight, 1.5 μg of triolein per g body weight, and 0.15 μg of 24-methylenecycloartanol equivalent per g body weight (the group as Comparative group).
# 8-week old male Wistar rats (supplied by Japan SLC Inc.), after 15 hours of fasting, were divided into groups each consisting of 10 rats with their body weight being almost the same between the groups. Immediately after the administration to each group, blood sample was collected from tail vein sequentially. The blood sample was measured for its blood glucose level by using ACCU-CHEK AVIVA (manufactured by Roche Diagnostics GmbH) to calculate the maximum increase of blood glucose.
# Results are represented as average±standard error, and statistical significant differences between groups were determined by the Dunnett's test with respect to the control group (*p <0.05).
# [1] = 0.15 μg per g body weight, *p<0.05 vs control (Dunnett)
structure (smiles),measurement,setting,value
"C=C(CC[C@@H](C)[C@H]1CC[C@@]2(C)[C@@H]3CC[C@H]4C(C)(C)[C@@H](O)CC[C@@]45C[C@@]35CC[C@]12C)C(C)C [24-methylenecycloartanol, reference compound]","Postprandial maximum increase of blood glucose (maximum increase value from initial value, relative value based on 100 for control group)",[1],89.25 ± 4.32 relative value based on 100 for control group
CC(C)=CCC[C@@H](C)[C@H]1CC[C@@]2(C)[C@@H]3CC[C@H]4C(C)(C)[C@@H](O)CC[C@@]45C[C@@]35CC[C@]12C [cycloartenol],postprandial increase of blood glucose (result in words),"0.075 μg per g body weight, rat",tended to be decreased
same,"Postprandial maximum increase of blood glucose (maximum increase value from initial value, relative value based on 100 for control group)",0.075 μg per g body weight,92.03 ± 3.16 relative value based on 100 for control group
same,postprandial increase of blood glucose (result in words),"0.15 μg per g body weight, rat",significantly inhibited
same,"Postprandial maximum increase of blood glucose (maximum increase value from initial value, relative value based on 100 for control group)",[1],79.74 ± 7.71* relative value based on 100 for control group
same,effect of inhibiting the postprandial increase of blood glucose compared with 24-methylenecycloartanol,"rat, comparison at 0.15 μg per g body weight",stronger than that of 24-methylenecycloartanol

# From US8501721B2, “Postprandial hyperglycemia-improving agent” (Kao Corporation, priority 2009, dated 2013)
